# Key:
# hFP = biological target: T1, hFP (Homo sapiens, UniProt P43088); assay: FLIPR calcium signal, hFP; assay type: cell-based; details: Table 3, third part
# T1 construct: expressed in transfected cells; host or cells: HEK-293(EBNA)
# Method: (§1) HEK-293(EBNA) cells, stably expressing one type or subtype of recombinant human prostaglandin receptors (prostaglandin receptors expressed: hDP/Gqs5; hEP1; hEP2/Gqs5; hEP3A/Gqi5; hEP4/Gqs5; hFP; hIP; hTP), were cultured in 100 mm culture dishes in high-glucose DMEM medium containing 10% fetal bovine serum, 2 mM 1-glutamine, 250 μg/ml geneticin (G418) and 200 μg/ml hygromycin B as selection markers, and 100 units/ml penicillin G, 100 μg/ml streptomycin and 0.25 μg/ml amphotericin B. • (b) Calcium Signal Studies on the FLIPR™
# (§2) Cells were seeded at a density of 5×10^4 cells per well in Biocoat® Poly-D-lysine-coated black-wall, clear-bottom 96-well plates (Becton-Dickinson) and allowed to attach overnight in an incubator at 37° C. Cells were then washed two times with HBSS-HEPES buffer (Hanks Balanced Salt Solution without bicarbonate and phenol red, 20 mM HEPES, pH 7.4) using a Denley Cellwash plate washer (Labsystems). After 45 minutes of dye-loading in the dark, using the calcium-sensitive dye Fluo-4 AM at a final concentration of 2 μM, plates were washed four times with HBSS-HEPES buffer to remove excess dye leaving 100 μl in each well. Plates were re-equilibrated to 37° C. for a few minutes.
# (§3) Cells were excited with an Argon laser at 488 nm, and emission was measured through a 510-570 nm bandwidth emission filter (FLIPR™, Molecular Devices, Sunnyvale, Calif.). Drug solution was added in a 50 μl volume to each well to give the desired final concentration. The peak increase in fluorescence intensity was recorded for each well. On each plate, four wells each served as negative (HBSS-HEPES buffer) and positive controls (standard agonists: BW245C (hDP); PGE2 (hEP1; hEP2/Gqs5; hEP3A/Gqi5; hEP4/Gqs5); PGF2α (hFP); carbacyclin (hIP); U-46619 (hTP), depending on receptor). The peak fluorescence change in each drug-containing well was then expressed relative to the controls.
# Compounds were tested in a high-throughput (HTS) or concentration-response (CoRe) format. […]
# hEP1 = biological target: T2, hEP1 (Homo sapiens, UniProt P34995); assay: FLIPR calcium signal, hEP1; assay type: cell-based; details: Table 3, third part
# T2 construct: expressed in transfected cells; host or cells: HEK-293(EBNA)
# T2 sequence (P34995 1-402): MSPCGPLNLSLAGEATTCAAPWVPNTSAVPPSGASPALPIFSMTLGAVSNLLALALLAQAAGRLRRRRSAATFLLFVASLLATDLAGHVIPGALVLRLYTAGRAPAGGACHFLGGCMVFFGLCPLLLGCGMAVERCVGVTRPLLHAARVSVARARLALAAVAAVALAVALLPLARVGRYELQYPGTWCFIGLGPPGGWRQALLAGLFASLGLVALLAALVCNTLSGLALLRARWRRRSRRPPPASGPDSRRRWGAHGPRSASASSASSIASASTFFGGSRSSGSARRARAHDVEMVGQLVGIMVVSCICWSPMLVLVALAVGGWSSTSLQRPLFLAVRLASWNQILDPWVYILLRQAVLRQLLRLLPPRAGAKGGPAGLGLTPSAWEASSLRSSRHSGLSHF
# Method: as §1, §2, §3
# (§4) Compounds were tested in a high-throughput (HTS) or concentration-response (CoRe) format. In the HTS format, forty-four compounds per plate were examined in duplicates at a concentration of 10^−5 M. To generate concentration-response curves, four compounds per plate were tested in duplicates in a concentration range between 10^−5 and 10^−11 M. The duplicate values were averaged. In either, HTS or CoRe format each compound was tested on at least 3 separate plates using cells from different passages to give an n≧3.
# hEP4/Gqs5 = biological target: T3, hEP4/Gqs5 (Homo sapiens, UniProt P35408); assay: FLIPR calcium signal, hEP4; assay type: cell-based; details: Table 3, third part
# T3 construct: expressed in transfected cells; host or cells: HEK-293(EBNA)
# T3 sequence (P35408 whole entry): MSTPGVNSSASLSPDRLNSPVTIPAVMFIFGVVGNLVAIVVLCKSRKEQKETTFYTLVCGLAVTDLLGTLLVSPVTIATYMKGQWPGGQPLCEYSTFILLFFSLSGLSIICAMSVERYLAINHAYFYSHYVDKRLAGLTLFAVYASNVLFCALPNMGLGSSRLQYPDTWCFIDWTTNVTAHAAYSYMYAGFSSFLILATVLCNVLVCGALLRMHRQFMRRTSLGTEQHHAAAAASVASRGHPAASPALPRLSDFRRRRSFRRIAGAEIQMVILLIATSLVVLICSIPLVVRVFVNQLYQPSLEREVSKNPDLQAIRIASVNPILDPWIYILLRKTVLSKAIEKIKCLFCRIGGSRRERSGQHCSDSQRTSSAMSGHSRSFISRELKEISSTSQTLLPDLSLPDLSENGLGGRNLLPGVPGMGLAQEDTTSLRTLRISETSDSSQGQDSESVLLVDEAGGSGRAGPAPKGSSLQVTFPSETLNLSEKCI
# Method in brief: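 HEK-293(EBNA) cells stably expressing the recombinant human receptor were loaded with 2 μM Fluo-4 AM for 45 min and read on FLIPR at 37° C in HBSS-HEPES pH 7.4. Peak fluorescence rise was expressed relative to buffer and standard agonist controls (BW245C, PGE2 or U-46619 by receptor); compounds were run 10^−5 to 10^−11 M in duplicate, n≧3.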
# hTP = biological target: T4, hTP (Homo sapiens, UniProt P21731); assay: FLIPR calcium signal, hTP; assay type: cell-based; details: Table 3, third part
# T4 construct: expressed in transfected cells; host or cells: HEK-293(EBNA)
# T4 sequence (P21731 1-343): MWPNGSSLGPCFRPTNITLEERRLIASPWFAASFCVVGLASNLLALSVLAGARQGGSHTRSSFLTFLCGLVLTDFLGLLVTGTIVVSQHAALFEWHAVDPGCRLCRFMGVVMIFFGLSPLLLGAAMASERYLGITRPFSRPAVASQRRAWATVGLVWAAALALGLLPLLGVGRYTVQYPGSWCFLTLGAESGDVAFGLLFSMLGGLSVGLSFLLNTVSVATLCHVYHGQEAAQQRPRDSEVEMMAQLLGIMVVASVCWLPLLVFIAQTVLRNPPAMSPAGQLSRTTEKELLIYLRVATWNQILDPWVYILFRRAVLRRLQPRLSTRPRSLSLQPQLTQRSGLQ
# Method: as §1, §2, §3, §4
# hIP = biological target: T5, hIP (Homo sapiens, UniProt P43119); assay: FLIPR calcium signal, hIP; assay type: cell-based; details: Table 3, third part
# T5 construct: expressed in transfected cells; host or cells: HEK-293(EBNA)
# T5 sequence (P43119 whole entry): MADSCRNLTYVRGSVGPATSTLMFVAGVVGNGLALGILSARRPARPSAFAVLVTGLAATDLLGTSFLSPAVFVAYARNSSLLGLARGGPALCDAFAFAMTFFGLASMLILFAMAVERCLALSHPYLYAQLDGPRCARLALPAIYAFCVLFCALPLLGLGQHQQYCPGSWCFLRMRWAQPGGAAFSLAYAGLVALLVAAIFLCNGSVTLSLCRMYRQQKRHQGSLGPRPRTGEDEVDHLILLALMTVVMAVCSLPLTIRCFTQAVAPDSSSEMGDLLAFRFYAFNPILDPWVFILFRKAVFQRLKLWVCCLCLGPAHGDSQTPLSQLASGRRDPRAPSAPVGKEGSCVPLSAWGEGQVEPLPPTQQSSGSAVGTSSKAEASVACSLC
# Method: as §1, §2, §3, §4
# rabbits = assay: Ocular surface hyperemia, rabbits; assay type: in vivo; details: score
# Method: (§5) Ocular surface hyperemia was visually assessed and scored according to a system typically used clinically.
# (§6) Ocular surface hyperemia was evaluated at the same time points as intraocular pressure measurement. It should be noted that untreated dog eyes frequently have a pink/red tone. Thus, values of trace or even mild are not necessarily out of the normal range. Similar tests were used to determine ocular surface hyperemia on monkeys and rabbits.
# monkeys = assay: Intraocular pressure (IOP) in monkeys; assay type: in vivo
# Beagle dogs [1] = assay: Intraocular pressure (IOP) in dogs, pneumatonometry; assay type: in vivo; details: topical
# Method: (§7) Intraocular pressure studies in dogs involved pneumatonometry performed in conscious, Beagle dogs of both sexes (10-15 kg). The animals remained conscious throughout the study and were gently restrained by hand. Drugs were administered topically to one eye as a 25 μL volume drop, the other eye received 25 μL vehicle (0.1% (w/v) polysorbate 80; 10 mM TRIS) as a control. Proparacaine (0.1% w/v) was used for corneal anesthesia during tonometry. Intraocular pressure was determined just before drug administration and at 2, 4 and 6 hr thereafter on each day of the 5 day study. Drug was administered immediately after the first IOP reading.
# as §7, with “(0.1%” for “(0.1% (w/v)”, “80:10” for “80; 10”, “(0.1%)” for “(0.1% w/v)”
# Beagle dogs [2] = assay: Ocular surface hyperemia, dogs; assay type: in vivo; design: key: 0.5: <1 trace; 1 mild; 2: moderate; 3: severe; details: score
# Method: as §5, §6
# T1 sequence (P43088 whole entry): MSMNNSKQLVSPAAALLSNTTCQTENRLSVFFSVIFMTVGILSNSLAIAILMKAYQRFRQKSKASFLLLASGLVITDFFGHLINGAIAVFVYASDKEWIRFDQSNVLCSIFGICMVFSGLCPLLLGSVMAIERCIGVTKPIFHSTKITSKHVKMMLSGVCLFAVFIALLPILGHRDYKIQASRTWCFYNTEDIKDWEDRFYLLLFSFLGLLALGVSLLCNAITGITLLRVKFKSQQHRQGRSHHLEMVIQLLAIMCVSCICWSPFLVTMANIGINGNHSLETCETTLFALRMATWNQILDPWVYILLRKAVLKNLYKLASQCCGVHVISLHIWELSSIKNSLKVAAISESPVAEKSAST
structure (smiles),measurement,setting,value
CCCCCC(O)c1ccc([C@@H]2[C@@H](C/C=C\CCCC(=O)O)[C@H](Cl)C[C@@H]2Cl)cc1 (stereo partly drawn),Ca2+ Signal-EC50 (nM) FP,hFP,not active
same,Ca2+ Signal-EC50 (nM) EP1,hEP1,not active
same,EC50,hEP4/Gqs5; read-out: Ca2+ Signal-EC50 (nM) EP4,10000 nM
same,Ca2+ Signal-EC50 (nM) TP,hTP,not active
same,Ca2+ Signal-EC50 (nM) IP,hIP,not active
CCCCCC(O)c1ccc([C@@H]2[C@@H](C/C=C\CCCC(=O)O)[C@H](Cl)C[C@H]2Cl)cc1 (stereo partly drawn),Ca2+ Signal-EC50 (nM) FP,hFP,not active
same,Ca2+ Signal-EC50 (nM) EP1,hEP1,not active
same,Ca2+ Signal-EC50 (nM) EP4,hEP4/Gqs5,not active
same,Ca2+ Signal-EC50 (nM) TP,hTP,not active
same,Ca2+ Signal-EC50 (nM) IP,hIP,not active
CC(C)OC(=O)CCCCCC[C@@H]1[C@@H](c2ccc(C(C)(C)C)cc2)[C@H](O)C[C@H]1Cl,RABBIT Max. hyperemia,rabbits; Conc. 0.01% g/100 mL,0.1
same,MONKEY Max. ΔIOP (mm Hg),monkeys; Conc. 0.01% g/100 mL,8 mm Hg
CC(C)OC(=O)CCC/C=C\C[C@@H]1[C@@H](c2ccc(C(O)C3CCCCC3)cc2)[C@H](O)C[C@H]1Cl (stereo partly drawn),DOG Max. ΔIOP (mm Hg),Beagle dogs [1]; Conc. 0.01% g/100 mL,−4 mm Hg
same,DOG Max. hyperemia,Beagle dogs [2]; Conc. 0.01% g/100 mL,0.6
same,MONKEY Max. ΔIOP (mm Hg),monkeys; Conc. 0.01% g/100 mL,5 mm Hg
O=C(O)CCC/C=C\C[C@@H]1[C@@H](c2ccc3c(c2)CCC3O)[C@H](O)C[C@H]1Cl (stereo partly drawn),DOG Max. ΔIOP (mm Hg),Beagle dogs [1]; Conc. 0.30% g/100 mL,−7 mm Hg
same,DOG Max. hyperemia,Beagle dogs [2]; Conc. 0.30% g/100 mL,1
same,MONKEY Max. ΔIOP (mm Hg),monkeys; Conc. 0.30% g/100 mL,7 mm Hg
CC(C)OC(=O)CCC/C=C\C[C@@H]1[C@@H](c2ccc3c(c2)CCC3O)[C@H](O)C[C@H]1Cl (stereo partly drawn),DOG Max. ΔIOP (mm Hg),Beagle dogs [1]; Conc. 0.10% (0.1%) g/100 mL,−12 mm Hg
same,RABBIT Max. hyperemia,rabbits; Conc. 0.10% (0.1%) g/100 mL,0.25
CC(C)OC(=O)CCC/C=C\C[C@@H]1[C@@H](c2ccc(C(C)(C)CO)cc2)[C@H](O)C[C@H]1Cl,DOG Max. ΔIOP (mm Hg),Beagle dogs [1]; Conc. 0.10% (0.1%) g/100 mL,−5 mm Hg
same,DOG Max. hyperemia,Beagle dogs [2]; Conc. 0.10% (0.1%) g/100 mL,0.7
same,RABBIT Max. hyperemia,rabbits; Conc. 0.10% (0.1%) g/100 mL,0.1
same,MONKEY Max. ΔIOP (mm Hg),monkeys; Conc. 0.10% (0.1%) g/100 mL,6 mm Hg
